Test results from ChEMBL document CHEMBL2046354, “Identification of spirocyclic piperidine-azetidine inverse agonists of the ghrelin receptor” (Bioorg Med Chem Lett, 2012).

Test: Oral bioavailability in Sprague-Dawley rat at 30 mg/kg
Type: ADME, organism-based
Details: in vivo

- bioavailability: 43%
Structure (SMILES): Cc1cn2cc(CC(=O)N3CCC4(CC3)CN(Cc3ccc(-n5nccn5)cc3Cl)C4)nc2s1
